Test results from US20080261895A1 (Wyeth, priority 2006, published 2008).
“And” between values parts separate entries of the source, which are not always exact repeats. Identical values can stand only once.

Legend:
[1] = Stability of [14C]DVS in control rat plasma; format: in vitro ADME; conditions: 37° C.
Method: (§1) The stability of [^14C]DVS in rat plasma was determined. [^14C]DVS (0.01 mg/mL, final concentration) was added to control rat plasma and incubated in a shaking water bath set to 37° C. Aliquots (0.5 mL) were removed at 0, 1, 4, 8 and 24 hours. Samples were extracted as described above and radiopurity assayed by HPLC analysis.

[2] = Stability of [14C]DVS in control dog plasma; format: in vitro ADME; conditions: 37° C., up to 24 hours
Method: as §1, with “in dog” for “in rat”, “[^14C]DVS (0.012” for “[^14C]DVS (0.01”, “control dog” for “control rat”, “C. Duplicate aliquots (1” for “C. Aliquots (0.5”, “4, 8,” for “4, 8”

[3] = Whole blood and plasma radioactivity and partitioning after single oral [14C]DVS, dogs; format: in vivo, beagle dogs; conditions: single oral 30 mg/kg; for Radioactivity in Plasma, Individual Dogs / Radioactivity in Plasma, Mean ± S.D. / Radioactivity in Whole Blood, Individual Dogs: listed as [^14C]DVS, 30 mg/kg
Method: Male beagle dogs (n=4), weighing between 14.4 and 16.2 kg at the time of dosing (from an in-house colony), were used. For ease of reporting, the animals were designated numbers 5 through 8. Dose preparation, animal dosing and sample collection were performed at Wyeth Research, Pearl River, N.Y.
The oral dosing solution was prepared by suspending 19.0 mg of [^14C]DVS and 4168.3 mg of unlabeled DVS in 270 mL of vehicle (0.25% polysorbate 80, 0.5% methylcellulose in water). The radiochemical purity, specific activity and concentration of [^14C]DVS (bulk drug and dosing solution) were determined using HPLC with radiometric detection. Duplicate aliquots of the dosing solution were taken pre-, mid- and post-dose for the determination of specific activity and radioactivity concentrations of the dosing solution.
The target dose for each animal was 30 mg/kg (free base; 10 mg/mL, 3 mL/kg, 30 μCi/kg) [^14C]DVS via oral gavage. The target dose was selected because it has been used in previous pharmacokinetic studies.
Whole blood (approximately 10 mL), collected into heparinized tubes at 1, 4, 8, and 24 hours post-dose (N=4 for each time point), was analyzed. One mL of blood was transferred to a fresh tube to be used for determination of radioactivity concentrations. Plasma was obtained by centrifugation at 4° C. within two hours of blood collection. Plasma and whole blood samples were shipped on dry ice to Wyeth Research, Biotransformation Division (Collegeville, Pa.) for analysis. Triplicate aliquots of whole blood (200 μL) were placed into combusto-cones and allowed to air dry. These samples were then oxidized and radioactivity content determined. Triplicate aliquots (100 μL) of the plasma samples were analyzed for radioactivity content. The remaining plasma was stored at −70° C. until metabolite analysis.
For each dog, urine and feces were collected separately, with urine collected on dry ice and feces collected at room temperature. Collections were from 0-8 and 8-24 hours for urine and 0-24 hours for feces. Urine and fecal samples were shipped on dry ice to Wyeth Research, Biotransformation Division (Collegeville, Pa.) for analysis. Fecal samples were homogenized in approximately five volumes (v/w) of water. Aliquots of approximately 0.2 grams of the homogenate were placed into combusto-cones, weighed and allowed to air dry. These samples were then oxidized and radioactivity content determined. The remaining urine samples and fecal homogenates were stored at −70° C. until metabolite analysis. Blood samples and fecal homogenates were oxidized in a Model 307 Tri-Carb sample oxidizer, using Carbosorb® E (6 mL) as trapping agent and PermaFluor® E^+ (10 mL) as scintillant. The background reading (average of control blood or fecal samples) was subtracted from each sample reading. Aliquots of urine and plasma were analyzed directly following the addition of 10 mL of Ultima Gold™ scintillation fluid.
All radioactivity determinations were made using a Tri-Carb Model 3100TR liquid scintillation counter (Packard BioScience, Boston, Mass.) with an Ultima GOl™ or toluene standard curve. Counts per minute (CPM) were converted to disintegrations per minute (DPM) by use of external standards of known radioactivity. The quench of each standard was determined by the transformed spectral index of an external radioactive standard (tSIE). The lower limits of detection were defined as twice background.

[4] = Urinary excretion and metabolite profile by radiochromatography, rats; format: in vivo, Sprague Dawley rats; conditions: for Compounds Detected by Radiochromatography in urine (Mean ± S.D., n = 3), percent of total peaks / Radioactivity as % of Dose in urine, Mean ± S.D. / Radioactivity as % of Dose in urine, Individuals: single oral 20 mg/kg; for Radioactivity as % of Dose in urine, Individuals: listed as [^14C]DVS, 20 mg/kg
Method: Urine and feces were collected separately on dry ice from three animals per sex. Collections were from 0-8 and 8-24 hours for male rats and 0-8 hours for female rats. Fecal samples were homogenized in approximately five volumes (v/w) of water. Aliquots of approximately 0.4 grams of the homogenate were placed into combusto-cones, weighed and allowed to air dry. These samples were then oxidized. The remaining urine samples and fecal homogenates were stored at −70° C. until metabolite analysis.
All urine samples were analyzed for metabolite profiles. Aliquots of 0.5 mL urine were centrifuged at 3500 rpm and 4° C. in a Sorvall Super 21 centrifuge for 10 minutes. The supernatant was transferred to a fresh tube and analyzed for radioactivity content and by HPLC for profiling. Selected samples were also analyzed by LC/MS to characterize the radioactive peaks.
Chromatographic analyses were performed with a Waters Alliance model 2690 HPLC system (Waters Corp., Milford, Mass.). It was equipped with a built-in autosampler and was in-line with a model 2487 tunable UV detector, set to monitor 225 nm, and a FloOne β Model 525 radioactivity flow detector (Perkin Elmer) with a 250 μL LQTR flow cell. The flow rate of Ultima Flow M scintillation fluid was 1 mL/min, providing a mixing ratio of scintillation cocktail to mobile phase of 5:1. Separation of the metabolite peaks was accomplished on a Phenomenex Luna C18(2) column, 150×2.0 mm, 5 micron (Phenomenex, Torrance, Calif.), using a linear gradient of two mobile phases, A and B. Mobile phase A was 10 mM ammonium acetate, pH 6.0, and mobile phase B was acetonitrile. The flow rate was 0.2 mL/min.

- radiopurity of [14C]DVS in rat plasma ([1]; all time points up to 24 hours): greater than 98.9%
- Stability of [14C]DVS in control rat plasma ([1]; up to 24 hours): stable
- Stability of [14C]DVS in control dog plasma [2]: stable
- Radioactivity in Whole Blood, Mean ± S.D. ([3]; 1 hr): 8.37 ± 1.45 μg equivalents/mL
- Radioactivity in Whole Blood, Mean ± S.D. ([3]; 4 hr): 8.58 ± 0.59 μg equivalents/mL
- Radioactivity in Whole Blood, Mean ± S.D. ([3]; 8 hr): 3.84 ± 1.01 μg equivalents/mL
- Radioactivity in Whole Blood, Mean ± S.D. ([3]; 24 hr): 0.48 ± 0.20 μg equivalents/mL
- Compounds Detected by Radiochromatography in urine (Mean ± S.D., n = 3), percent of total peaks ([4]; 0-8 hr, female): 20.0 ± 3.5%
- Radioactivity as % of Dose in urine, Mean ± S.D. ([4]; 0-8 hr, female): 54.5 ± 12%
- Radioactivity as % of Dose in urine, Individuals ([4]; 0-8 hr, female): 53.8% and 42.7% and 67.1%
- Compounds Detected by Radiochromatography in urine (Mean ± S.D., n = 3), percent of total peaks ([4]; 0-8 hr, male): 10.9 ± 2.1%
- Radioactivity as % of Dose in urine, Mean ± S.D. ([4]; 0-8 hr, male): 59.1 ± 7.9%
- Radioactivity as % of Dose in urine, Individuals ([4]; 0-8 hr, male): 60.1% and 50.7% and 66.5%
- Compounds Detected by Radiochromatography in urine (Mean ± S.D., n = 3), percent of total peaks ([4]; 8-24 hr, male): 9.1 ± 1.1%
- Radioactivity as % of Dose in urine, Mean ± S.D. ([4]; 8-24 hr, male): 25.5 ± 6.4%
- Radioactivity as % of Dose in urine, Individuals ([4]; 8-24 hr, male): 24.6% and 32.3% and 19.7%
- % of the radioactive dose recovered in urine ([4]; within 24 hours post-dose): 85%
- % of the radioactive dose recovered in urine ([4]; within the first 8 hours post-dose): greater than 50%
SMILES: CN(C)CC(c1ccc(O)cc1)C1(O)CCCCC1.O=C(O)CCC(=O)O (stereo not drawn) [DVS, O-desmethylvenlafaxine succinate]
- Radioactivity in Plasma, Individual Dogs ([3]; 1 hr): 14.6 μg equivalents/mL and 11.5 μg equivalents/mL and 9.56 μg equivalents/mL and 17.5 μg equivalents/mL
- Radioactivity in Plasma, Mean ± S.D. ([3]; 1 hr): 13.3 μg equivalents/mL and 13.3 ± 3.5 μg equivalents/mL
- Radioactivity in Whole Blood, Individual Dogs ([3]; 1 hr): 8.56 μg equivalents/mL and 8.61 μg equivalents/mL and 6.40 μg equivalents/mL and 9.91 μg equivalents/mL
- Radioactivity in Plasma, Individual Dogs ([3]; 4 hr): 17.0 μg equivalents/mL and 16.8 μg equivalents/mL and 16.5 μg equivalents/mL and 17.1 μg equivalents/mL
- Radioactivity in Plasma, Mean ± S.D. ([3]; 4 hr): 16.9 μg equivalents/mL and 16.9 ± 0.3 μg equivalents/mL
- Radioactivity in Whole Blood, Individual Dogs ([3]; 4 hr): 8.16 μg equivalents/mL and 8.03 μg equivalents/mL and 8.82 μg equivalents/mL and 9.30 μg equivalents/mL
- Radioactivity in Plasma, Individual Dogs ([3]; 8 hr): 4.51 μg equivalents/mL and 9.12 μg equivalents/mL and 10.2 μg equivalents/mL and 5.87 μg equivalents/mL
- Radioactivity in Plasma, Mean ± S.D. ([3]; 8 hr): 7.43 μg equivalents/mL and 7.43 ± 2.68 μg equivalents/mL
- Radioactivity in Whole Blood, Individual Dogs ([3]; 8 hr): 3.30 μg equivalents/mL and 3.79 μg equivalents/mL and 5.27 μg equivalents/mL and 2.98 μg equivalents/mL
- Radioactivity in Plasma, Individual Dogs ([3]; 24 hr): 0.66 μg equivalents/mL and 0.86 μg equivalents/mL and 1.14 μg equivalents/mL and 0.56 μg equivalents/mL
- Radioactivity in Plasma, Mean ± S.D. ([3]; 24 hr): 0.81 μg equivalents/mL and 0.81 ± 0.25 μg equivalents/mL
- Radioactivity in Whole Blood, Individual Dogs ([3]; 24 hr): 0.38 μg equivalents/mL and 0.47 μg equivalents/mL and 0.75 μg equivalents/mL and 0.31 μg equivalents/mL
